Data taken from ChEMBL document CHEMBL1131371, “H-phosphonate derivatives as novel peptide deformylase inhibitors” (Bioorg Med Chem Lett, 1998).
Each block holds one molecule with its values, some of them ahead of it.

How the values were obtained:
Peptide deformylase = target: T1, Peptide deformylase (Escherichia coli, UniProt Q9JN24); assay: Compound was evaluated for inhibitory activity against Peptide deformylase
T1 sequence (Q9JN24 whole entry): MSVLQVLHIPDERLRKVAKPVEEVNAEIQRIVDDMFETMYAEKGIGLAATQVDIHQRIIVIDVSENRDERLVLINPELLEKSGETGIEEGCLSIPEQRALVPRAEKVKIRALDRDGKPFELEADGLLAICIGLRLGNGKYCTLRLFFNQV

[1] = Compound was evaluated for inhibitory activity against Zn2+ deformylase.
[2] = substrate: CCCC[C@H](O[PH](=O)O)C(=O)N[C@@H](CC(C)C)C(=O)Nc1ccc([N+](=O)[O-])cc1
Description: Apparent KM against enzyme peptide deformylase (PDF)

Ki (Peptide deformylase): 125 µM
Molecule: CCCC[C@@H](O[PH](=O)O)C(=O)N[C@@H](CC(C)C)C(=O)Nc1ccc([N+](=O)[O-])cc1

Ki (Peptide deformylase): 37 µM | Ki [1]: 76 µM
Molecule: CCCC[C@H](O[PH](=O)O)C(=O)N[C@@H](CC(C)C)C(=O)Nc1ccc([N+](=O)[O-])cc1

B1: Peptide deformylase, mitochondrial (Homo sapiens), Q9HBH1 (protein)
chain: MARLWGALSLWPLWAAVPWGGAAAVGVRACSSTAAPDGVEGPALRRSYWRHLRRLVLGPPEPPFSHVCQVGDPVLRGVAAPVERAQLGGPELQRLTQRLVQVMRRRRCVGLSAPQLGVPRQVLALELPEALCRECPPRQRALRQMEPFPLRVFVNPSLRVLDSRLVTFPEGCESVAGFLACVPRFQAVQISGLDPNGEQVVWQASGWAARIIQHEMDHLQGCLFIDKMDSRTFTNVYWMKVND
Km [2]: 20 µM
